Assay results published in patent US11312676B2, “Small molecule stimulators of steroid receptor coactivator proteins and their use in the treatment of cancer” (BAYLOR COLLEGE OF MEDICINE, priority 2014, dated 2022).

Tests used:
[1] = target: T1, SRC-2 (Homo sapiens, UniProt Q15596); experiment: Gal4 luciferase reporter assay (pBIND-SRC-2 + pG5-LUC) in HeLa cells; assay type: cell-based; conditions: 24-hour treatment, 5-8 μM, maximum over SRC-1/-2/-3
T1 construct: expressed in transfected cells; host or cells: HeLa
T1 sequence (Q15596 whole entry, the tested form may be a part): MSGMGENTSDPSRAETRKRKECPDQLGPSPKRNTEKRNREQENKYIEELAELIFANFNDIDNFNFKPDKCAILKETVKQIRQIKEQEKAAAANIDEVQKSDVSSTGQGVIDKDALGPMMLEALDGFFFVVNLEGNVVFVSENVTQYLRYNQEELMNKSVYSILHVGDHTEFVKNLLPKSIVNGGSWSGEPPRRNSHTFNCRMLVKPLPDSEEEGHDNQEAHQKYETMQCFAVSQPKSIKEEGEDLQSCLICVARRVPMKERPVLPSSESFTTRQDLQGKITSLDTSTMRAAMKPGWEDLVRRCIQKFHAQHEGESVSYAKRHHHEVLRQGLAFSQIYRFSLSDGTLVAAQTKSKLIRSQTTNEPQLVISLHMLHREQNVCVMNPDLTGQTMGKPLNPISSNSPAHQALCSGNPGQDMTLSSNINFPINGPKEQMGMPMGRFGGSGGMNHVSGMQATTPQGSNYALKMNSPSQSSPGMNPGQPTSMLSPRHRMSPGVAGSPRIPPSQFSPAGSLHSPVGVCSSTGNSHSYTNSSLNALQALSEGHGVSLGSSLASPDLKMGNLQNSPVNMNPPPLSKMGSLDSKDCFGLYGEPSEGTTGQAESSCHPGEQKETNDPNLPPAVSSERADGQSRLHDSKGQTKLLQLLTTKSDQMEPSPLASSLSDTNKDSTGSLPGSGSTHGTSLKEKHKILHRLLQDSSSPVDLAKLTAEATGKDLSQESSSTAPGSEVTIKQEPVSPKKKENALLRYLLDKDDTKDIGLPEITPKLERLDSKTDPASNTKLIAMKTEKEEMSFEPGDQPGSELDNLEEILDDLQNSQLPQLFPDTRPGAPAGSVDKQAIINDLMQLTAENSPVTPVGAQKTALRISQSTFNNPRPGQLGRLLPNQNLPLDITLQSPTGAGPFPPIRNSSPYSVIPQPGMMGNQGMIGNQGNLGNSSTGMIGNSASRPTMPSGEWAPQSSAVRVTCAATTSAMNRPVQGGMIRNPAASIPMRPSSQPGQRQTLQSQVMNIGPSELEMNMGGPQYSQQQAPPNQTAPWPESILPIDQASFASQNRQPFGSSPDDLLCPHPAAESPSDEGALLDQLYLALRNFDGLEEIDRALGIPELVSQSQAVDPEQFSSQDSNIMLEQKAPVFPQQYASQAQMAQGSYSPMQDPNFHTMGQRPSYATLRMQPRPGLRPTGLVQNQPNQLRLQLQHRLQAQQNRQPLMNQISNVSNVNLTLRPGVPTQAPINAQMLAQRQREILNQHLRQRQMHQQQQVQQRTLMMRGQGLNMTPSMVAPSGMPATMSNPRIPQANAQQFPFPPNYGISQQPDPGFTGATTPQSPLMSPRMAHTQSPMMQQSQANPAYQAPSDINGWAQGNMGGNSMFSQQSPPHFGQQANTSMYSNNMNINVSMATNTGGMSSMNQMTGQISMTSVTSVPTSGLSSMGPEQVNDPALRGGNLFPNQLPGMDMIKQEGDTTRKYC
Experimental: (§1) The constructs expressing the Gal4 responsive luciferase reporter (pG5-luc), Gal4 DBD fusion with SRC-1, […] (pBIND-SRC-1/-2/-3), MMP2 or MMP13 promoter driven luciferase reporter (MMP2-luc, MMP13-luc) were prepared. Twenty-four hours before transfection, HeLa cells were plated in 24-well dishes. The indicated expression plasmids were transfected into cells using Lipofectamine 2000 according to the manufacturer's instructions.
(§2) After various compound treatments, cells were lysed in luciferase lysis buffer and assayed for luciferase activity using the ONE-Glo luciferase assay system (Promega, Madison, Wis.). All luciferase activities were normalized to protein concentration determined by Bradford assay (Bio-Rad, Hercules, Calif.).

[2] = system: HeLa cells; experiment: MTS cell viability assay, HeLa cells; assay type: cell-based; conditions: SRC-3 KO vs WT HeLa, 24 hours
[3] = system: MMP2 promoter; experiment: MMP2-luc reporter with SRC-3 expression vector in HeLa cells; assay type: cell-based; conditions: 24 hours
Experimental: as §1, §2

[4] = system: human pediatric GBM tumor; experiment: Patient derived xenograft pediatric GBM model, survival; assay type: in vivo; conditions: treated every day for 14 days, tumor cells in mouse brainstem
Experimental: A tumor from a human patient was transferred directly into a mouse host (patient derived xenograft) without culturing on a plastic substrate. Tumor cells (50,000) were injected into mouse brainstems and allowed to proliferate for 14 days. Animals were treated every day with either MCB-613 (test group) or vehicle (control group) for 14 days. The animals were then housed with no further experimental manipulation. Overall survival was recorded from the experimental and control groups.

[5] = target: T2, VP16 (Human herpesvirus 1, UniProt P06492); experiment: Gal4-VP16 + pG5-LUC luciferase assay in HeLa cells; assay type: cell-based; conditions: 24 hours, only at higher compound concentrations
T2 construct: expressed in transfected cells; host or cells: HeLa
T2 sequence (P06492 413-490): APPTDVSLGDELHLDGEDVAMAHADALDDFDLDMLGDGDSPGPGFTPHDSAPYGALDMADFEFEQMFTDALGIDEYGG

[6] = target: T3, receptor interacting domain (RID) of SRC-3 (Homo sapiens, UniProt Q9Y6Q9); experiment: Fluorescence spectroscopy, intrinsic fluorescence quenching of GST SRC-3 RID; assay type: binding; conditions: 1.5 μM GST SRC-3 RID, excitation 278 nm; read-out: half-affecting concentration of intrinsic fluorescence quenching, SRC-3 RID
T3 construct: A total of 1.5 μM of GST SRC-3 RID, CID or bHLH was placed in a fluorescence cuvette; made in house
T3 sequence (Q9Y6Q9 582-840 limits assumed): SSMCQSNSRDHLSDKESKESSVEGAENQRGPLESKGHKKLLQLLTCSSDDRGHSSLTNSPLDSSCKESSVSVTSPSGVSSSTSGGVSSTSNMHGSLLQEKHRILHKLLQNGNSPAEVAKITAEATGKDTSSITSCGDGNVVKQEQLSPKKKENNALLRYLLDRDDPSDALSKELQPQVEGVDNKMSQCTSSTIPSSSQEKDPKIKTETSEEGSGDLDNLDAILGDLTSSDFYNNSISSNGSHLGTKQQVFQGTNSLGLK
Experimental: (§3) Fluorescence spectrometric measurements were performed on a SLM 48000S fluorescence spectrophotometer (SLM-Aminco, Rochester, N.Y.) and an Agilent Cary Eclipse Fluorescence spectrophotometer (Agilent Technologies, Inc., Santa Clara, Calif.) using the GST fusion proteins of different portions of SRC-3 expressed and purified. A total of 1.5 μM of GST SRC-3 RID, CID or bHLH was placed in a fluorescence cuvette and excited by UV light at a wavelength of 278 nm with a 2 nm bandwidth and the emission spectra were recorded from 290 nm to above 500 nm with a bandwidth of 4 nm. The aliquot size of test compound was maintained below 5% of the total sample volume in order to minimize the effects of dilution.

[7] = system: MCF-7 breast cancer xenograft; experiment: MCF-7 xenograft tumor model; assay type: in vivo; conditions: 20 mg/kg i.p. three times a week
Experimental: Twenty 6-8 week-old athymic nude female mice were obtained from Harlan. Two days before cancer cell injection, one estradiol pellet was embedded under the skin for each mouse and a new pellet was added twice at a one month interval. Following this, 1×10^6 MCF-7 cells […] mixed with equal volume of growth factor reduced matrigel (BD Biosciences) were injected into the fat pad of each of the 2nd pair mammary gland without clearing. The MCB-613 treatment which lasted for seven weeks was started approximately seven weeks after the cell injection when tumor sizes reached above 5 mm in diameter. Ten mice received MCB-613 (20 mg/kg) in saline by i.p. injection, whereas the control group contained 10 mice which received saline only. The compound was injected three times a week. The mice were weighed once a week and tumors were measured twice a week during the treatment period.
To further evaluate the anti-cancer potential of MCB-613, a MCF-7 breast cancer mouse xenograft model was employed to assess the tumor suppressive effects of MCB-613 in vivo. Tumors were established in athymic nude mice seven weeks after injection of MCF-7 cells into […] mammary fat pads. An MCB-613 treated group (n=10) received i.p. injection of the compound (20 mg/kg) three times a week, while a control group (n=10) was injected with a saline vehicle.

[8] = system: HeLa cells; experiment: Western blot of stress, UPR, autophagy and apoptosis markers in HeLa cells; assay type: cell-based
Experimental: (§4) For Western blotting, cells were harvested and lysed in lysis buffer (50 mM Tris, pH 8.0, 150 mM NaCl, 10% glycerol, 0.5% NP40, protease and phosphatase inhibitor) and then centrifuged for 15 min at 14000 rpm at 4° C. After total cellular protein concentration was determined by Bradford analysis (Bio-Rad, Hercules, Calif.), protein lysates were loaded onto and resolved by sodium dodecyl sulfate-polyacrylamide gel electrophoresis (SDS-PAGE) and transferred to PVDF membranes (BioRad) which were blocked and incubated with indicated antibodies. For immunoprecipitation, 10 μg of plasmid encoding FLAG-SRC-3 was transfected into HeLa cells with 90% confluence in one 10 cm plate with lipofectamine 2000 (Invitrogen). Twenty-four hours after transfection, the cells were treated with MCB-613 for one hour and lysed with lysis buffer (25 mM Tris-Cl pH7.5, 150 mM NaCl, 5% glycerol, 1 mM EDTA, 1% Triton X-100, protease and phosphatase inhibitor) at 4° C. After a 30-second sonication, the lysate was cleared by centrifugation at 14000 rpm at 4° C. for 15 minutes and was incubated with anti-Flag-M2 agarose affinity gel (Sigma) for four hours. The agarose gel was washed four times with washing buffer (25 mM Tris pH 8.0, 150 mM NaCl, 1 mM EDTA, 1% Triton X-100) and resuspended with SDS loading buffer for Western blotting.

[9] = target: T4, SRC-3-CBP-CARM1 complex (Homo sapiens, UniProt Q9Y6Q9); experiment: Coimmunoprecipitation of FLAG-SRC-3 with CBP and CARM1 in HeLa cells; assay type: cell-based; conditions: HeLa cells overexpressing FLAG-SRC-3, one hour, dose-dependent
T4 construct: expressed in transfected cells; host or cells: HeLa
Experimental: as §4, with “blotting. […]” for “blotting.”

[10] = system: PGC-1α; experiment: Gal4-PGC-1α + pG5-LUC luciferase assay in HeLa cells; assay type: cell-based; conditions: 24 hours, 2-10 μM
[11] = target: T5, CBP interacting domain (CID) of SRC-3 (Homo sapiens, UniProt Q9Y6Q9); experiment: Fluorescence spectroscopy, intrinsic fluorescence quenching of GST SRC-3 CID; assay type: binding; conditions: 1.5 μM GST SRC-3 CID
T5 construct: made in house
T5 sequence (Q9Y6Q9 1023-1093 limits assumed): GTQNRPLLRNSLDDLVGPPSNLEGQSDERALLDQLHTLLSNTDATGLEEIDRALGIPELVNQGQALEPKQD
Experimental: as §3

[12] = system: HeLa cells; experiment: Cytoplasmic vacuolization of cancer cells; assay type: cell-based; conditions: HeLa, MCF-7 or MDA-MB-231 cells

With `CCC1CC(=Cc2cccnc2)C(=O)C(=Cc2cccnc2)C1` (stereo not drawn) [MCB-613, 4-Ethyl-2,6-bis-pyridin-3-ylmethylene-cyclohexanone] the “induction in the activity of pBIND-SRC-2” value [1] was no more than 160 fold, the “viability of SRC-3 KO HeLa cells compared with WT cells” value [2] was “less affected” and the “SRC-3's coactivation of the MMP2 promoter” value [3] was “greatly enhanced”. The overall survival [4] was “extends survival time”, the “activity of GAL4-VP16 fusion protein” value [5] was “minimally increasing the activity” and the EC50 [6] was 10 µM. For the same molecule, the animal toxicity ([7]; 7 weeks) was “did not lead to obvious animal toxicity”, the “body weights between control and treated groups” value ([7]; 7 weeks) was “identical” and the “tumor volumes versus controls” value ([7]; after one week of treatment and throughout) was “significantly smaller than controls”. For the same molecule, the “proteasome function and ER stress (polyubiquitinated proteins, UPR markers)” value ([8]; 4-5 hours) was “leads to proteasome dysfunction and ER stress”, the “autophagy and apoptosis markers” value ([8]; 24 hours) was “led to the induction of LC3BII and caspase-3 cleavage” and the “SRC-3's interaction with CBP and CARM1” value [9] was “increased”. The “stimulation of GAL4-PGC-1α coactivator fusion protein” value [10] was “failing to stimulate”, the “concentration required to detect fluorescence quenching of the CID” value [11] was “at least 20 μM” and the “vacuolization in cancer cells” value [12] was “induced extensive vacuolization”.
